In patent US6355799B1, “Substituted benzene compounds, process for their preparation, and herbicidal and defoliant compositions containing them” (ISK Americas Incorporated, priority 1997, dated 2002):

What was measured:
Assay type in all cases: in vivo
[1] = system: redroot pigweed (Amaranthus retroflexus, AMARE); assay: Pre-emerge test, greenhouse herbicide activity screening; details: rated 14 days after application, 0 = no damage, 100 = complete death
In short: (§1)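 Plants grown in 10 cm pots of sandy loam mix received acetone-dissolved compounds through a moving flat-fan nozzle. Doses ranged from 15 to 1000 g ai/ha. Pre-emerge pots were seeded one day earlier, post-emerge pots 8–21 days earlier. Fourteen days on, each pot was graded 0–100 for damage.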

[2] = system: upland rice (Oryza sp., var. Tebonnet, RICE); assay: Pre-emerge test, crop safety; details: rated 14 days after application, 0 = no damage, 100 = complete death
In short: (§2)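 Visual ratings on a 0-100 scale (0 no damage, 100 all plants dead) were taken at 14 days after treatment. Rates of 15-1000 g ai/ha in acetone, 187 l/ha, were sprayed onto soil one day after planting (pre-emerge) or onto 2-3 leaf plants with 0.25% v/v surfactant (post-emerge).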

[3] = system: field corn (Zea mays L., var. Dekalb 535, CORN); assay: Pre-emerge test, crop safety; details: rated 14 days after application, 0 = no damage, 100 = complete death
In short: as §2

[4] = system: lambsquarters (Chenopodium album, CHEAL); assay: Pre-emerge test, greenhouse herbicide activity screening; details: rated 14 days after application, 0 = no damage, 100 = complete death
In short: as §1

[5] = system: ivyleaf morningglory (Ipomoea hederacea, IPOHE); assay: as above; details: rated 14 days after application, 0 = no damage, 100 = complete death
In short: as §1

[6] = system: barnyardgrass (Echinochloa crus-galli, ECHCG); assay: as above; details: rated 14 days after application, 0 = no damage, 100 = complete death
In short: as §1

[7] = system: common ragweed (Ambrosia artemisizfolia L., AMBEL); assay: as above; details: rated 14 days after application, 0 = no damage, 100 = complete death
In short: as §1

[8] = system: johnsongrass (Sorghum halepense, SORHA); assay: as above; details: rated 14 days after application, 0 = no damage, 100 = complete death
In short: as §1

[9] = system: large crabgrass (Digitaria sanguinalis, DIGSA); assay: as above; details: rated 14 days after application, 0 = no damage, 100 = complete death
In short: as §1

[10] = system: green foxtail (Setaria viridis, SETVI); assay: as above; details: rated 14 days after application, 0 = no damage, 100 = complete death
In short: as §1

[11] = system: velvetleaf (Abutilon theophrasti, ABUTH); assay: as above; details: rated 14 days after application, 0 = no damage, 100 = complete death
In short: as §1

[12] = system: sicklepod (Cassia obtusifolia, CASOB); assay: as above; details: rated 14 days after application, 0 = no damage, 100 = complete death
In short: as §1

[13] = system: redroot pigweed (Amaranthus retroflexus, AMARE); assay: Post-emerge test, greenhouse herbicide activity screening; details: post-emerge, 14 days after application, rating scale 0-100
In short: (§3)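 Applied at 15–1000 g ai/ha from acetone in 187 l/ha spray volume. Post-emergence applications included 0.25% v/v non-ionic surfactant and reached plants sown 8–21 days before. Pre-emergence applications were incorporated by surface watering. Efficacy or crop damage was rated on a 0–100 scale after 14 days.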

[14] = system: lambsquarters (Chenopodium album, CHEAL); assay: as above; details: post-emerge, 14 days after application, rating scale 0-100
In short: as §3

[15] = system: ivyleaf morningglory (Ipomoea hederacea, IPOHE); assay: as above; details: post-emerge, 14 days after application, rating scale 0-100
In short: as §3

[16] = system: barnyardgrass (Echinochloa crus-galli, ECHCG); assay: as above; details: post-emerge, 14 days after application, rating scale 0-100
In short: as §3

[17] = system: common ragweed (Ambrosia artemisizfolia L., AMBEL); assay: as above; details: post-emerge, 14 days after application, rating scale 0-100
In short: as §3

[18] = system: johnsongrass (Sorghum halepense, SORHA); assay: as above; details: post-emerge, 14 days after application, rating scale 0-100
In short: as §3

[19] = system: large crabgrass (Digitaria sanguinalis, DIGSA); assay: as above; details: post-emerge, 14 days after application, rating scale 0-100
In short: as §3

[20] = system: green foxtail (Setaria viridis, SETVI); assay: as above; details: post-emerge, 14 days after application, rating scale 0-100
In short: as §3

[21] = system: velvetleaf (Abutilon theophrasti, ABUTH); assay: as above; details: post-emerge, 14 days after application, rating scale 0-100
In short: as §3

[22] = system: sicklepod (Cassia obtusifolia, CASOB); assay: as above; details: post-emerge, 14 days after application, rating scale 0-100
In short: as §3

[23] = system: upland rice (Oryza sp., var. Tebonnet, RICE); assay: Post-emerge test, crop safety; details: post-emerge, 14 days after application, rating scale 0-100
In short: (§4)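 Each test used a mechanized track sprayer delivering 187 l/ha of acetone solution at 15–1000 g ai/ha. Post-emerge foliage at 2–3 leaves was treated with added 0.25% v/v non-ionic surfactant and bottom-watered only. Injury was assessed on day 14, where 100 means total kill.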

[24] = system: field corn (Zea mays L., var. Dekalb 535, CORN); assay: Post-emerge test, crop safety; details: post-emerge, 14 days after application, rating scale 0-100
In short: as §4

## COc1c(Cl)cc(F)c(-n2c(=O)cc(C(F)(F)F)n(C)c2=O)c1NC(=O)c1c(F)c(F)c(F)c(F)c1F [2-52]
[1]; 63 g ai/ha
  Pre-emerge Herbicidal Activity, phytotoxicity rating (0-100), AMARE: 100
[2]; 63 g ai/ha
  Pre-emerge phytotoxicity rating (0-100), crop damage, RICE: 0
[3]; 63 g ai/ha
  Pre-emerge phytotoxicity rating (0-100), crop damage, CORN: 0
[4]; 63 g ai/ha
  Pre-emerge Herbicidal Activity, phytotoxicity rating (0-100), CHEAL: 50
[5]; 63 g ai/ha
  Pre-emerge Herbicidal Activity, phytotoxicity rating (0-100), IPOHE: 0
[6]; 63 g ai/ha
  Pre-emerge Herbicidal Activity, phytotoxicity rating (0-100), ECHCG: 0
[7]; 63 g ai/ha
  Pre-emerge Herbicidal Activity, phytotoxicity rating (0-100), AMBEL: 0
[8]; 63 g ai/ha
  Pre-emerge Herbicidal Activity, phytotoxicity rating (0-100), SORHA: 0
[9]; 63 g ai/ha
  Pre-emerge Herbicidal Activity, phytotoxicity rating (0-100), DIGSA: 0
[10]; 63 g ai/ha
  Pre-emerge Herbicidal Activity, phytotoxicity rating (0-100), SETVI: 40
[11]; 63 g ai/ha
  Pre-emerge Herbicidal Activity, phytotoxicity rating (0-100), ABUTH: 10
[12]; 63 g ai/ha
  Pre-emerge Herbicidal Activity, phytotoxicity rating (0-100), CASOB: 0
[13]; 63 g ai/ha
  phytotoxicity rating AMARE: 30
[14]; 63 g ai/ha
  phytotoxicity rating CHEAL: 10
[15]; 63 g ai/ha
  phytotoxicity rating IPOHE: 10
[16]; 63 g ai/ha
  phytotoxicity rating ECHCG: 0
[17]; 63 g ai/ha
  phytotoxicity rating AMBEL: 20
[18]; 63 g ai/ha
  phytotoxicity rating SORHA: 0
[19]; 63 g ai/ha
  phytotoxicity rating DIGSA: 0
[20]; 63 g ai/ha
  phytotoxicity rating SETVI: 0
[21]; 63 g ai/ha
  phytotoxicity rating ABUTH: 30
[22]; 63 g ai/ha
  phytotoxicity rating CASOB: 0
[23]; 63 g ai/ha
  phytotoxicity rating RICE: 0
[24]; 63 g ai/ha
  phytotoxicity rating CORN: 0

## COc1c(Cl)cc(F)c(-n2c(=O)cc(C(F)(F)F)n(C)c2=O)c1NC(=O)c1ccccc1Cl [2-53]
[1]; 63 g ai/ha
  Pre-emerge Herbicidal Activity, phytotoxicity rating (0-100), AMARE: 100
[1]; 250 g ai/ha
  Pre-emerge Herbicidal Activity, phytotoxicity rating (0-100), AMARE: 100
[2]; 63 g ai/ha
  Pre-emerge phytotoxicity rating (0-100), crop damage, RICE: 80
[2]; 250 g ai/ha
  Pre-emerge phytotoxicity rating (0-100), crop damage, RICE: 90
[3]; 63 g ai/ha
  Pre-emerge phytotoxicity rating (0-100), crop damage, CORN: 25
[3]; 250 g ai/ha
  Pre-emerge phytotoxicity rating (0-100), crop damage, CORN: 90
[4]; 63 g ai/ha
  Pre-emerge Herbicidal Activity, phytotoxicity rating (0-100), CHEAL: 100
[4]; 250 g ai/ha
  Pre-emerge Herbicidal Activity, phytotoxicity rating (0-100), CHEAL: 100
[5]; 63 g ai/ha
  Pre-emerge Herbicidal Activity, phytotoxicity rating (0-100), IPOHE: 100
[5]; 250 g ai/ha
  Pre-emerge Herbicidal Activity, phytotoxicity rating (0-100), IPOHE: 100
[6]; 63 g ai/ha
  Pre-emerge Herbicidal Activity, phytotoxicity rating (0-100), ECHCG: 40
[6]; 250 g ai/ha
  Pre-emerge Herbicidal Activity, phytotoxicity rating (0-100), ECHCG: 99
[7]; 63 g ai/ha
  Pre-emerge Herbicidal Activity, phytotoxicity rating (0-100), AMBEL: 80
[7]; 250 g ai/ha
  Pre-emerge Herbicidal Activity, phytotoxicity rating (0-100), AMBEL: 100
[8]; 63 g ai/ha
  Pre-emerge Herbicidal Activity, phytotoxicity rating (0-100), SORHA: 40
[8]; 250 g ai/ha
  Pre-emerge Herbicidal Activity, phytotoxicity rating (0-100), SORHA: 100
[9]; 63 g ai/ha
  Pre-emerge Herbicidal Activity, phytotoxicity rating (0-100), DIGSA: 90
[9]; 250 g ai/ha
  Pre-emerge Herbicidal Activity, phytotoxicity rating (0-100), DIGSA: 100
[10]; 63 g ai/ha
  Pre-emerge Herbicidal Activity, phytotoxicity rating (0-100), SETVI: 100
[10]; 250 g ai/ha
  Pre-emerge Herbicidal Activity, phytotoxicity rating (0-100), SETVI: 100
[11]; 63 g ai/ha
  Pre-emerge Herbicidal Activity, phytotoxicity rating (0-100), ABUTH: 100
[11]; 250 g ai/ha
  Pre-emerge Herbicidal Activity, phytotoxicity rating (0-100), ABUTH: 100
[12]; 63 g ai/ha
  Pre-emerge Herbicidal Activity, phytotoxicity rating (0-100), CASOB: 95
[12]; 250 g ai/ha
  Pre-emerge Herbicidal Activity, phytotoxicity rating (0-100), CASOB: 100
[13]; 63 g ai/ha
  phytotoxicity rating AMARE: 90
[13]; 250 g ai/ha
  phytotoxicity rating AMARE: 100
[14]; 63 g ai/ha
  phytotoxicity rating CHEAL: 95
[14]; 250 g ai/ha
  phytotoxicity rating CHEAL: 100
[15]; 63 g ai/ha
  phytotoxicity rating IPOHE: 90
[15]; 250 g ai/ha
  phytotoxicity rating IPOHE: 100
[16]; 63 g ai/ha
  phytotoxicity rating ECHCG: 0
[16]; 250 g ai/ha
  phytotoxicity rating ECHCG: 70
[17]; 63 g ai/ha
  phytotoxicity rating AMBEL: 70
[17]; 250 g ai/ha
  phytotoxicity rating AMBEL: 90
[18]; 63 g ai/ha
  phytotoxicity rating SORHA: 0
[18]; 250 g ai/ha
  phytotoxicity rating SORHA: 50
[19]; 63 g ai/ha
  phytotoxicity rating DIGSA: 0
[19]; 250 g ai/ha
  phytotoxicity rating DIGSA: 20
[20]; 63 g ai/ha
  phytotoxicity rating SETVI: 20
[20]; 250 g ai/ha
  phytotoxicity rating SETVI: 40
[21]; 63 g ai/ha
  phytotoxicity rating ABUTH: 100
[21]; 250 g ai/ha
  phytotoxicity rating ABUTH: 100
[22]; 63 g ai/ha
  phytotoxicity rating CASOB: 70
[22]; 250 g ai/ha
  phytotoxicity rating CASOB: 100
[23]; 63 g ai/ha
  phytotoxicity rating RICE: 30
[23]; 250 g ai/ha
  phytotoxicity rating RICE: 70
[24]; 63 g ai/ha
  phytotoxicity rating CORN: 10
[24]; 250 g ai/ha
  phytotoxicity rating CORN: 70
